Test results: patent US8367727B2, “Method of using abscisic acid to treat diseases and disorders” (priority 2006, dated 2013)

Key:
influenza virus antigens = experiment: Antigen-specific T cell response after immunization with inactivated influenza virus vaccine; type: cell-based; conditions: ABA-fed mice (controls 5)
[1] = test system: immune cell populations in blood and MLN; experiment: Immunophenotyping of blood and mesenteric lymph nodes by flow cytometry after DSS challenge; type: in vivo, mice
Experimental: MLNs were excised and crushed with frosted slides, washed with PBS, and resuspended in PBS and enumerated with a Coulter Counter (Beckman Coulter, Fullerton, Calif.). MLN-derived cells (2×10^5 cells/well) or whole blood (10 μL/well) were seeded onto 96-well plates, centrifuged at 4° C. at 3000 rpm for 4 minutes, and washed with PBS containing 5% serum and 0.09% sodium azide (FACS buffer). […] For lymphocyte assessment, cells were incubated with anti-CD4-Alexa Fluor 700 (2 μg/mL; BD Pharmingen), anti-CD8-PerCp-Cy5.5 (2 μg/mL, eBioscience), CD3 PE-Cy5 (2 μg/mL; BD Pharmingen), anti-CD25-FITC (BD), anti-CTLA-4 FITC (BD), or anti-FoxP3-PE (2 μg/mL, eBioscience) as previously shown (77). Flow results were computed with a BD LSR II flow cytometer and data analyses was performed with FACS Diva software (BD).

PPAR γ = biological target: T1, PPAR γ (Mus musculus, UniProt P37238); conditions: ABA 12.5 μM, rosiglitazone 1 μM; previously found (ref 48); cited from earlier work
T1 construct: expressed in transfected cells; host or cells: 3T3-L1 pre-adipocytes (ATCC)
T1 sequence (P37238 1-505): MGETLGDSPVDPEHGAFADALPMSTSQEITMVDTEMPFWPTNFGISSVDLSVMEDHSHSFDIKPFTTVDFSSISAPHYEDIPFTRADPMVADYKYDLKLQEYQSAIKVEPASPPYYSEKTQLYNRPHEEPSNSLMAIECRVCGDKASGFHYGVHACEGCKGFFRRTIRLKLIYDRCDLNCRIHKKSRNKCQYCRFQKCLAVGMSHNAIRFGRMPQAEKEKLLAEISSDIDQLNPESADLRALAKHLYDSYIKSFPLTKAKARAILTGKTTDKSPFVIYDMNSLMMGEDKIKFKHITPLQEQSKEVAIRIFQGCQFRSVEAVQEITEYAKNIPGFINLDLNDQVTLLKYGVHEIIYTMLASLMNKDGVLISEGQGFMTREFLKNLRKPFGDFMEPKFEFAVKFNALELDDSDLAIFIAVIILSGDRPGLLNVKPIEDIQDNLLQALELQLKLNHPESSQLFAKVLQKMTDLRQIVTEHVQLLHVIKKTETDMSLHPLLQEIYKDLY

[2] = test system: PPAR γ and PPAR γ-responsive genes in WAT; experiment: Quantitative real-time RT-PCR of white adipose tissue (WAT) of db/db mice; type: in vivo
From the text: Complementary DNA (cDNA) concentrations for β-actin, PPAR γ, PPAR α, PPAR δ, adiponectin, CD36, aP2, and TNF-α were examined by real-time quantitative PCR using and iCycler IQ System and the iQ SYBR green supermix (Bio-Rad). SYBR green I is a general double-stranded DNA intercalating dye and, therefore, may detect nonspecific products and primer/dimers in addition to the amplicon of interest. In order to determine the number of products produced during the real-time PCR, a melting curve analysis was performed on each product. Real-time PCR was used to measure the starting amount of nucleic acid of each unknown sample of cDNA on the same 96-well plate. Results are presented as starting quantity of cDNA (picograms) per microgram of mRNA.

[3] = all studies conducted with ABA; cited from earlier work
[4] = test system: lymphocytes derived from the spleen; experiment: Anti-CD3-induced proliferation of spleen-derived lymphocytes; type: cell-based; conditions: ABA-fed mice (controls 30.12)
db/db mice = experiment: WAT and skeletal muscle (SM) inflammation in db/db mice (Example 8); type: in vivo
Experimental: WAT Digestion. […] The floating portion (adipocyte-rich portion), was then removed and digested for an addition 60 minutes at 37° C.
Quantitative real-time reverse transcriptase PCR.
Complementary DNA (cDNA) concentrations for genes of interest were examined by real-time quantitative PCR using an iCycler IQ System and the iQ SYBR green supermix (BioRad). A standard curve was generated for each gene using 10-fold dilutions of purified amplicons starting at 5 pg of cDNA and used later to calculate the starting amount of target cDNA in the unknowns.

[5] = 100 mg ABA/kg diet, 36 days, P<0.01

For `CC1=CC(=O)CC(C)(C)C1(O)/C=C/C(C)=C\C(=O)O` (racemic) [ABA, abscisic acid], the “production of interleukin-2 (IL-2)” value (influenza virus antigens) was 31.67 picograms IL-2/ml of cell supernatant, the “CTLA-4 expression on CD4+ T cells in blood” value ([1]; ABA-fed wild-type mice) was “significantly increased” and the “percent of CD4+CD25+FoxP3+ regulatory T cells” value ([1]; MLN) was “significantly increased”. For the same compound, the “effect on F4/80+CD11b+ monocytes” value ([1]; PPAR γ-deficient (CD4cre) mice) was “absent”, the “increase of CTLA-4 expression on CD4+ T cells in blood” value ([1]; lack of PPAR γ (CD4cre mice)) was “abrogated” and the “F4/80+CD11b+ monocytes” value ([1]; wt mice, blood) was “significantly decreased”. For the same compound, the “PPAR γ transactivation, comparison of the two agonists” value (PPAR γ) was “equally effective”, the “mRNA expression of PPAR α or PPAR δ” value ([2]; 100 mg ABA/kg diet, 36 days) was “no significant differences” and the “WAT expression of CD36 mRNA” value [2, 5] was “significant increase”. For the same compound, the “WAT expression of PPAR γ mRNA” value [2, 5] was “significant increase”, the “WAT expression of aP2 mRNA” value ([2]; 100 mg ABA/kg diet, 36 days, P<0.02) was “significant increase” and the “WAT expression of adiponectin mRNA” value ([2]; 100 mg ABA/kg diet, 36 days, P<0.05) was “significant increase”. The “TNF-α mRNA expression in WAT” value ([2]; ABA-fed db/db mice, P<0.05) was “down-regulated”, the side-effects [3] was “no side-effects observed” and the “stimulation index, anti-CD3-induced proliferation” value [4] was 8.55. For the same compound, the “MCP-1 expression in SM” value (db/db mice; ABA-fed mice) was “significantly downregulated”, the “MCP-1 expression in stromal vascular cells (SVCs)” value (db/db mice; ABA-fed mice) was “significantly downregulated” and the “TNF-α expression in SM, control-fed db/db versus ABA-fed db/db mice” value (db/db mice; P=0.03) was “approximately 2 fold”. For the same compound, the IMAT adipocyte hypertrophy (db/db mice; db/db mice, 100 mg ABA/kg diet, 36 days) was “significantly attenuated” and the “CCR2 and CCR5 macrophage infiltration into WAT” value (db/db mice; dietary ABA-supplementation, 36 days) was “significantly decreased”.
